Laboratory results published in patent publication US20250281466A1, “USE OF CLOPIDOGREL OR COMBINATIONS THEREOF TO TREAT AMYOTROPHIC LATERAL SCLEROSIS, DAMAGES CAUSED BY THE NORMAL AGING PROCESS, NERVE INJURIES, MUSCULAR DYSTROPHY, STRENUOUS PHYSICAL ACTIVITIES AND OTHER CONDITIONS THAT AFFECT SYNAPSES AS WELL AS SKELETAL MUSCLES” (Brown University, priority 2024, published 2025).
Read-outs that look alike come from different tables or passages of the source.

Experiments:
SOD1^G93A mice [1] = settings: EDL of P120 SOD1^G93A mice, versus vehicle, *p<0.05, n=7-8
Protocol: (§1) We treated SOD1^G93A mice with either vehicle or Clopidogrel (1 mg/kg) for 30 days starting at symptom onset (90 days old). […] The EDL and TA are hindlimb muscles mostly composed of fast-twitch fibers that play similar function in leg movement. These muscles are adjacent to each other and are affected early in ALS38.
Discussion of Research Design (current) and Experimental Methods: Currently Disclosed Aim 1A: Identify the optimal Clopidogrel dose to protect NMJs from ALS.

SOD1^G93A mice [2] = settings: Clopidogrel 1 mg/kg for 30 days from 90 days old, versus vehicle (FIG. 3C)
Protocol: as §1

mice = settings: general statement before a planned dose pilot study; cited from earlier work
SOD1^G93A mice [3] = settings: SOD1^G93A mice examined at 15 and 30 days after treatment starting at 90 days of age, compared to vehicle (FIG. 5B)
Excerpt: NeuroScore involved observing the ability of mice to control the position and mobility of both hindlimbs independently of each other. In this 0-4 point scoring system, 0 represents normal control and 4 represents complete loss of the ability to command hindlimb movement (FIG. 5A).
We also assessed disease progression in mice using the neurological scoring system (NeuroScore) which is used to determine disease stage in SOD1^G93A mice. NeuroScore involved observing the ability of mice to control the position and mobility of both hindlimbs independently of each other. In this 0-4 point scoring system, 0 represents normal control and 4 represents complete loss of the ability to command hindlimb movement (for example, see FIG. 5A).

SOD1^G93A mice [4] = settings: P120 SOD1^G93A mice
Excerpt: In FIGS. 4A-4H, DigiGait™ was used for gate analysis of P120 SOD1^G93A mice treated with Vehicle or the P2Y12 antagonist Clopidogrel. […] Scale bar=10 μm.
To this end, before sacrificing mice for histological analysis, we examined the gait patterns of SOD1^G93A mice treated with Clopidogrel and vehicle using the DigiGait™ system.

[5] = general statement, no test described; cited from earlier work
mouse model of ALS = tested on: mouse model of ALS
Excerpt: FIGS. 11A-11F provide a summary of Clopidogrel treatment on mouse model of ALS. FIG. 11A (control) and FIG. 11B provide images showing neuromuscular junctions (NMJs) treated with vehicle (control) and Clopidogrel. Blue depicts axons and Magenta muscle region in contact with motor axons.
FIGS. 11A-11F provide a summary of Clopidogrel treatment on a mouse model of ALS. FIG. 11A (control, left) and FIG. 11B (Clopidogrel, right) provide images showing neuromuscular junctions (NMJs) treated with vehicle (control, left) and Clopidogrel (right). Blue (or grey in upper panels) depicts axons and Magenta (grey in lower panels) muscle region in contact with motor axons.

COC(=O)[C@H](c1ccccc1Cl)N1CCc2sccc2C1 [Clopidogrel]
fully denervated NMJs (analysis of NMJ innervation, FIG. 3B) (SOD1^G93A mice [1]): fewer fully denervated NMJs | TA muscle mass (SOD1^G93A mice [2]): significantly preserved the overall mass of the tibialis anterior (TA) muscle | TA muscle mass (SOD1^G93A mice [2]; listed as clopidogrel): higher TA muscle mass | side effects in mice (mice): lethargy, weight loss and internal bleeding | disease progression by NeuroScore (0-4 point scoring system) (SOD1^G93A mice [3]): the disease progressed slower | stride frequency (DigiGait) (SOD1^G93A mice [4]; compared to vehicle, n=3-5 (FIG. 4A, 4B)): increases stride frequency | swing duration (DigiGait) (SOD1^G93A mice [4]; compared to vehicle, n=3-5 (FIG. 4C, 4D)): reduces swing duration | percent brake of stride (DigiGait) (SOD1^G93A mice [4]; forelimb and hindlimb, versus vehicle (FIG. 4G, 4H)): increased | brake time (DigiGait) (SOD1^G93A mice [4]; versus vehicle (FIG. 4E, 4F)): increased the brake time | crossing of the blood-brain-barrier (BBB) [5]: does not cross the blood-brain-barrier | intactness of muscle regions in contact with motor axons (NMJ) (mouse model of ALS; versus vehicle control (FIG. 11C, 11E)): more intact | number of denervated NMJs (mouse model of ALS; versus vehicle control (FIG. 11D, 11F)): reduces the number of denervated NMJs
